Source: patent publication US4923965A, “Tripeptides of N^3 -4-methoxyfumaryl-L-2,3-diaminopropanoic acid” (Politechnika Gdanska, priority 1988, dated 1990)
Converted amounts (≈) assume the structure as drawn. Where a name gives a salt, the structure may show the parent alone.

Key:
[1] = MIC stated in the synthesis examples; assay type: cell-based; settings: strain and medium not given
[2] = system: Candida albicans ATCC 26278; assay: minimum inhibitory concentration for elected strain; assay type: cell-based
Description: The in vitro activity has been evaluated by the method of serial dilutions in parallel on solid YNB medium and on YNB w/o+AN medium, where the abbreviation AN means 200 mg of sodium glutamate, 10 mg of L-histidine, 20 mg of DL-methionine, 20 mg DL-tryptophane, 10 g of glucose and 15 g of agar-agar per 1 liter of the YNB medium. The application of the medium modified in such a manner was made necessary by the known phenomenon of lower biological activity in the media containing ammonium sulphate as a source of nitrogen.

SMILES	MIC [1]	minimum inhibitory concentration, MIC [2]
COC(=O)/C=C/C(=O)NC[C@H](N)C(=O)N[C@@H](CCSC)C(=O)N[C@@H](C)C(=O)O [Example I, N^3-4-methoxyfumaryl-L-2,3-diaminopropanoyl-L-methionyl-L-aniline]	0.1 µg/mL (≈ 0.239 µM)	
COC(=O)/C=C/C(=O)NC[C@H](NC(=O)[C@@H](N)CCSC)C(=O)N[C@@H](CCSC)C(=O)O [VIII, N^2 -L-methionyl, n^3-4-methoxyfumaryl-L-2,3-diaminopropanoyl-L-methonine hydrochloride]	0.8 µg/mL	
CCC[C@H](NC(=O)[C@@H](N)CCSC)C(=O)N[C@@H](CNC(=O)/C=C/C(=O)OC)C(=O)O [XVI, N^2 -L-methionyl-L-norvalyl, N^3-4-methoxyfumaryl-L-2,3-diaminopropanoic hydrochloride]	0.8 µg/mL	0.4 µg/mL
CCC[C@H](NC(=O)[C@@H](N)CCCCN)C(=O)N[C@@H](CNC(=O)/C=C/C(=O)OC)C(=O)O [XXII, N^2 --L-lysyl-L-norvalyl-N^3-4-methoxyfumaryl-L-2,3-diaminopropanoic dihydrochloride]		0.02 µg/mL
